Data: patent publication US10513521B2, “Compositions and methods for inhibiting BMP” (The Brigham and Women's Hospital, Inc., priority 2014, dated 2019)
Changes are numbered by the printed parent chain. Read-outs that look alike come from different tables or passages of the source.

What was measured:
ALK4 = target: T1, ALK4 (Homo sapiens, UniProt P36896); test: TR-FRET enzymatic ALK kinase assay, ALK4
T1 sequence (P36896 24-505): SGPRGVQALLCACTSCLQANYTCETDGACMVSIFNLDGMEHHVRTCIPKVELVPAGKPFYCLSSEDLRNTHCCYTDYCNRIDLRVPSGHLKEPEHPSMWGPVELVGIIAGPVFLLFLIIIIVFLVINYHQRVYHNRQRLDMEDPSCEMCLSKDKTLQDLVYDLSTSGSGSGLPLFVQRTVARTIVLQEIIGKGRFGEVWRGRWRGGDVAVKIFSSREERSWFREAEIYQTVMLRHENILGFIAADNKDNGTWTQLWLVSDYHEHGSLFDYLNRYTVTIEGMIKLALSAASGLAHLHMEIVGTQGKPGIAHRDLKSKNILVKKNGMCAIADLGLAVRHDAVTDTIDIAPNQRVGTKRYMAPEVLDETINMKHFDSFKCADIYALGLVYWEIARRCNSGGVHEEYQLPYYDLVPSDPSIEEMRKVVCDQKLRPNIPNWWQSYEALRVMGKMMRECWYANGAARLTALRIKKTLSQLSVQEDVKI
Protocol: (§1) Briefly, the ALKs enzymatic assay was initiated by dispense 2.5 μl enzyme in 1× kinase reaction buffer. The assay plate was then added with compounds followed by incubation at room temperature for 10 minutes. Then 2.5 μl/well substrate was added.

ALK3 = ALK3 (Homo sapiens, UniProt P36894); test: TR-FRET enzymatic ALK kinase assay, ALK3
Sequence of ALK3 (P36894 24-532): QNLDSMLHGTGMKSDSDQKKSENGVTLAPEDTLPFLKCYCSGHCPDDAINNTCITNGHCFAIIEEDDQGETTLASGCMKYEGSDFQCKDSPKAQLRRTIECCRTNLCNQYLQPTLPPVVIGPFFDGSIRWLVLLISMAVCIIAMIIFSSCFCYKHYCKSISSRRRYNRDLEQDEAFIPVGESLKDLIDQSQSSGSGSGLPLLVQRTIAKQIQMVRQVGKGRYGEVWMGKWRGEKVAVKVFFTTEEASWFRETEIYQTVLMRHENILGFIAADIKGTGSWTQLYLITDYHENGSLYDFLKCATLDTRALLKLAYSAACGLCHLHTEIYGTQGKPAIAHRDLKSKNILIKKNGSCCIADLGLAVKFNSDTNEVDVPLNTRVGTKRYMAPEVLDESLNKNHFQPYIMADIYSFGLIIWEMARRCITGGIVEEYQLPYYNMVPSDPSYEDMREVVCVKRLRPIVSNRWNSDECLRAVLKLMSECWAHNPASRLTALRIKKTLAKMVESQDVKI
Protocol: as §1

[1] = Cell-based assay, TGFb1 (Cell IC50)
ALK5 = target: T2, ALK5 (Homo sapiens, UniProt P36897); test: TR-FRET enzymatic ALK kinase assay, ALK5
T2 sequence (P36897 34-503): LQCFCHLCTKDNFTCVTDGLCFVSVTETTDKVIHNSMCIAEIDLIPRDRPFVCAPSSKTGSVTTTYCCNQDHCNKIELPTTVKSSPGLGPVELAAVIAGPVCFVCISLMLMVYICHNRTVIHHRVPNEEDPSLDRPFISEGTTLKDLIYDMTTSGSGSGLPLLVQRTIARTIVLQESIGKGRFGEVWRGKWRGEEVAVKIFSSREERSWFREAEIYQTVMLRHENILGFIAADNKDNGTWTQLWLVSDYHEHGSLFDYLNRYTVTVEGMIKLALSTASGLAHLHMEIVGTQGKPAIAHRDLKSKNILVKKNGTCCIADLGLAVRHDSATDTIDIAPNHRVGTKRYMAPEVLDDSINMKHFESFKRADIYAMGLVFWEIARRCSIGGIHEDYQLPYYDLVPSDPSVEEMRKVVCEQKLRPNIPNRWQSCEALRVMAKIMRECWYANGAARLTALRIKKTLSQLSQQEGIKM
Protocol: Six ALK kinase enzyme assays were developed for determination of compound activities on ALK1, ALK2, ALK3, ALK4, ALK5 and ALK6.
as §1

ALK6 = ALK6 (Homo sapiens, UniProt O00238); test: TR-FRET enzymatic ALK kinase assay, ALK6
Sequence of ALK6 (O00238 14-502): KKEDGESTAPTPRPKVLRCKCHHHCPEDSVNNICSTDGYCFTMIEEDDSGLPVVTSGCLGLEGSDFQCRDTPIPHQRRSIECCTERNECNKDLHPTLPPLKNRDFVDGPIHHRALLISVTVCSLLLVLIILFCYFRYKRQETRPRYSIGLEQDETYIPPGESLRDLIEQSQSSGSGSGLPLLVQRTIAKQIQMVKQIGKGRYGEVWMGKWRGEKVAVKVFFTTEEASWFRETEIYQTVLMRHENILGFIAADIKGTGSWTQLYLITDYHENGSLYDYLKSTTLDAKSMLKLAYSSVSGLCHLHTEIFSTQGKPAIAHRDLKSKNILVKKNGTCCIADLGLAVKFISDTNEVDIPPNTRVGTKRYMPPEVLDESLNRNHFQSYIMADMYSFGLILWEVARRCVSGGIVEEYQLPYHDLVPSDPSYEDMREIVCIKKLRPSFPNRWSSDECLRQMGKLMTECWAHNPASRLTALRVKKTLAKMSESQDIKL
Protocol: as §1

ALK2 [2] = target: T3, ALK2 (Mus musculus, UniProt P37172); test: HTRF pSMAD1 cell-based ALK2 assay (C2C12 cells, BMP6 as agonist)
T3 construct: The C2C12 cell line was selected for the measurement of ALK2 activity using BMP6 as the agonist; host or cells: C2C12
T3 sequence (P37172 21-509): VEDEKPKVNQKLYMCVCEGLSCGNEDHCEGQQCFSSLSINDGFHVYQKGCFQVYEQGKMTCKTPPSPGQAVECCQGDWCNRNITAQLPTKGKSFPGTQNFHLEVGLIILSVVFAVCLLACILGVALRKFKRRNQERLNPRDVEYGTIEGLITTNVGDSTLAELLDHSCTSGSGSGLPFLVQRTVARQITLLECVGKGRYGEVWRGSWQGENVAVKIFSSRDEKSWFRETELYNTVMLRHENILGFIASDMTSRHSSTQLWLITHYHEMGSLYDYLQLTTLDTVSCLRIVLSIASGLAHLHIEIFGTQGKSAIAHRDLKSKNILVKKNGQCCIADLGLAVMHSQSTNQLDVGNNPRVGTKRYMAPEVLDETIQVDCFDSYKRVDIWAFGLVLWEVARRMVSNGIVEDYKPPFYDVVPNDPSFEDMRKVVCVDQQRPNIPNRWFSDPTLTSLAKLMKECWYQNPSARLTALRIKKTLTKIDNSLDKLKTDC
Summary of the method: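 Cells pre-starved, plated in 0.1% FBS medium for 4 h, compound added for 30 min, then stimulated 30 min with BMP9 (BAOEC) or BMP6 (C2C12). Phospho-SMAD1 measured by HTRF after overnight room-temperature detection incubation.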

BMP4 = BMP4 HTRF assay; type: cell-based
ALK1 [3] = target: T4, ALK1 (Bos taurus, UniProt A4FUX2); test: HTRF pSMAD1 cell-based ALK1 assay (BAOEC cells, BMP9 as agonist); design: species or system Bovine
T4 construct: The BAOEC cell line was employed for the measurement of ALK1 activity using BMP9 as the agonist; host or cells: BAOEC (bovine aortic endothelial cells)
T4 sequence (A4FUX2 23-503): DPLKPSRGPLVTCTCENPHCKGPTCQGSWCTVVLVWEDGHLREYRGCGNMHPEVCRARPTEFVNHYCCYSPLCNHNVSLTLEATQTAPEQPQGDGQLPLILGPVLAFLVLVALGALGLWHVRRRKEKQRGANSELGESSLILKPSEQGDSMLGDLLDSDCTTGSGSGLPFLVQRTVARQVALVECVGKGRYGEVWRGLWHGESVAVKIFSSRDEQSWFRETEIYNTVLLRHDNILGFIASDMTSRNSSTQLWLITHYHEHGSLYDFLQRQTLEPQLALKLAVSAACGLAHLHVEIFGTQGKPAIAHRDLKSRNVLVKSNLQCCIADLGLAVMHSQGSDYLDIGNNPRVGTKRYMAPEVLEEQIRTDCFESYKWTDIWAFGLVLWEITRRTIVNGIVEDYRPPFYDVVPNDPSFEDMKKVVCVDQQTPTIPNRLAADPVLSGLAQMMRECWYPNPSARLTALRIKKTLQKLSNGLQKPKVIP
Protocol: 2. HTRF Cell-Based ALK1 and ALK2 Assays in 384-Well Plate Format We have developed a cell based ALK1 kinase assay and a cell-based ALK2 assay. The BAOEC cell line was employed for the measurement of ALK1 activity using BMP9 as the agonist. The C2C12 cell line was selected for the measurement of ALK2 activity using BMP6 as the agonist. The kinase specificity was defined by the specific cell line and agonist. The kinase activity was determined by the status of SMD 1/5/8 phosphorylation stimulated by the agonist.
HyClone Fetal Bovine Serum was obtained from GE healthcare life sciences (Logan, Utah). BMP6 and BMP9 were purchased from R&D System. […] The compound plates and the white solid MB assay plates were purchased from Greiner Bio-one (Monroe, N.C.).
HTRF optimization experiments were performed in 384 well plate format. […] Pre-starved cells were then plated in 384 well plate in the starvation medium (containing in 0.1% FBS). After 4 hours, compounds were added to the assay plate and incubated for 30 minutes. The assay plate was then added with BMP6 for C2C12 cells or BMP9 for BAOEC cells and incubated for 30 minutes.
HTRF assay was performed to measure the status of SMAD 1 phosphorylation after stimulated with the agonist (Table 3). This HTRF phospho SMAD1 cell assay was developed and optimized for the homogenous detection of phospho SMAD 1 levels in cells. […] The plate was incubated at room temperature for overnight.

ALK1 [4] = target: ALK1 (Homo sapiens, UniProt P37023); test: TR-FRET enzymatic ALK kinase assay, ALK1
Sequence of ALK1 (Homo sapiens, UniProt P37023) (P37023 22-503): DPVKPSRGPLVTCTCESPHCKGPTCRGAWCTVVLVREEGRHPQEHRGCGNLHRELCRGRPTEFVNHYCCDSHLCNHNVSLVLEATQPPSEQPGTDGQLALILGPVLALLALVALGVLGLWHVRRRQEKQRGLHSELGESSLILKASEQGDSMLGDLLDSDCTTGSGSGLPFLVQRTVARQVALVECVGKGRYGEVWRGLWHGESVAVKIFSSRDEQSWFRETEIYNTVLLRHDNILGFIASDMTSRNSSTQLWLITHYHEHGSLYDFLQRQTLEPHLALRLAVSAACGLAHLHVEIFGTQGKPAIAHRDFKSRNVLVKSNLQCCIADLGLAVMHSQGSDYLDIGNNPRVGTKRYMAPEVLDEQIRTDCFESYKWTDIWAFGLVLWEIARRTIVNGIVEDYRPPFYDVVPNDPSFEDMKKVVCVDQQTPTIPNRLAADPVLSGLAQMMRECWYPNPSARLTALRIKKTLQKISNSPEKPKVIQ
Protocol: as §1

ALK2 [5] = target: T5, ALK2 (Homo sapiens, UniProt Q04771); test: TR-FRET enzymatic ALK kinase assay, ALK2
T5 sequence (Q04771 21-509): T3 sequence (P37172 21-509) with V1M, Q10P, I121L, E162D, S310P
Protocol: as §1

C[C@@H]1CNC[C@H](C)N1c1ccc(-c2cnc3c(-c4ccc(CO)c5ccccc45)cnn3c2)cc1 [Compound 22, (4-(6-(4-((2R,6S)-2,6-dimethylpiperazin-1-yl)phenyl)pyrazolo[1,5-a]pyrimidin-3-yl)naphthalen-1-yl)methanol]
IC50 (ALK4): 1360 nM
IC50 (ALK3): 34 nM
IC50 [1]: 243 nM
IC50 (ALK5): 4.66 µM
IC50 (ALK6): 647 nM
IC50 (ALK2 [2]; HTRF assay, BMP6 as agonist, C2C12 cells, read-out: BMP6 HTRF): 47 nM
IC50 (ALK2 [2]; cell-based assay, BMP6, read-out: Cell IC50 BMP6): 2 nM
IC50 (BMP4): 820 nM
IC50 (ALK1 [3]): 33 nM
IC50 (ALK1 [4]): 4 nM
IC50 (ALK2 [5]): 9.7 nM
